From patent publication US20040052750A1, “Compositions for prevention and alleviation of skin wrinkles” (priority 2000, published 2004)
Where a name gives a salt, the structure may show the parent alone. Marks after values point to notes of the source that are not given here.

Tests used:
[1] = system: fibroblasts derived from a human; assay: Promoting collagen production in fibroblasts (3H-proline incorporation into collagenase-sensitive protein); type: cell-based; conditions: control = 100%
Protocol: The experimental protocol in detail is as follows.
Human-derived fibroblasts were transferred to a 24 well plate and cultured in a medium containing 10% fetal bovine serum (FBS) for 24 hours, followed by washing twice with phosphate buffered saline. […] After the incubation was terminated, cells from each group were harvested and two fractions of each culture were prepared. One fraction from each culture was treated with collagenase. To all fractions was added trichloroacetic acid to precipitate proteins. The amount of radioactivity incorporated into collagenase-sensitive protein was measured and compared with that of the other fraction which was not treated with collagenase. The difference in radioactivity was attributed to the promoting effect of the compound.

hairless mice [2] = assay: Alleviating photo-induced wrinkles in hairless mice; type: in vivo; conditions: twice a day for 6 weeks, 10 per group
Protocol: Mice were placed into 21 experimental groups and 3 control groups, with 10 rats per group. […] The experimental protocol is as follows. Hairless mice were radiated using a simulated sunlight at a dose of 2 MED (double Minimal Erythema Dose) 3 days a week for 10 weeks, thereby generating wrinkles. Then, respective active ingredients or the solvent only were applied at a volume of 100 μl each, twice a day for 6 weeks. Degrees of wrinkle reduction were determined. The determination was performed by visually observing the compound-applied region with naked eyes, and the region was photographed. The degrees of alleviation of wrinkles in the compound-treatment groups (experimental groups) were compared with those of the control group and were determined as one of 4 stages, that is, none (Score 0), slight (Score 1), moderate (Score 2) and high (Score 3), and the corresponding mice were counted.

hairless mice [3] = assay: Inhibiting the generation of wrinkles in hairless mice (simulated sunlight); type: in vivo; conditions: 10 per group
Protocol: 6-week hairless mice were placed into 21 experimental groups and 3 control groups, with 10 rats per group. […] The experimental protocol in detail is as follows. Hairless mice were radiated using simulated sunlight at a dose of 2 MED (double Minimal Erythema Dose) 3 days a week for […], thereby generating wrinkles. Respective active ingredients or the solvent only were applied twice every day (specifically, on radiation days, the application was performed at 30 min before and after the radiation), at a volume of 100 μl each for 10 weeks from the first radiation day. Degrees of inhibition of generated wrinkles were determined. The determination was performed by visual observation with naked eyes and photography.

rat skin = assay: Promotion of collagen production in rat skin (hydroxyproline in implanted PVA sponge); type: in vivo, SD rats; conditions: 200 μl every day for 10 days, control = 100%
Protocol: In brief, 5-week male SD rats were grouped with 5 rats per group. The rats were each incised 1 cm in the center of their abdomens and PVA sponges (Unipoint ind.) were inserted therein. After suturing, as for experimental groups, respective active ingredients to be examined were applied to the PVA sponge-embeded regions i n a volume o f 200 μl every day for 10 days. Upon autopsy, the PVA sponge was removed to quantify hydroxyproline. The PVA sponge was added with 4 ml of 6 N HCl, hydrolized at 130° C. for 3 hours and was subjected to complete drying. 50 μl of methanol was added and the solution was incubated at 110° C. until HCl was removed. 1.2 ml of 50% isopropanol was added to dissolve the remaining precipitate. 200 μl of chloramine-T (sodium p-toluensulfochloramide trihydrate) solution was added while stirring, and let stand for 10 min. After adding 1.2 ml of Ehrlich reagent and mixing, the solution was incubated at 50° C. for 90 min. The resulting solution was cooled to room temperature and absorbance at 558 nm was measured. Hydroxyproline standard solutions were prepared by dissolving 1 mg hydroxyproline in 1 ml HCl and diluting it to concentrations of 0, 0.2, 0.4, 0.8, 1 mg each relative to 25 μl of 6 N HCl. The standard solutions were hydrolyzed at 130° C. for 3 hours. The quantified value of hydroxyproline, relative to hydroxyproline value (100%) of the control group which was applied with solvent only, are shown in Table 2.

SMILES | Effect of promoting collagen production in fibroblasts (rate of collagen production) ([1]; 10^-5 M) [%] | Effect of promoting collagen production in fibroblasts (rate of collagen production) ([1]; 10^-6 M) [%] | Effect of promoting collagen production in fibroblasts (rate of collagen production) ([1]; 10^-7 M) [%] | Effect of promoting collagen production in fibroblasts (rate of collagen production) ([1]; 10^-8 M) | Reduction of wrinkles, Score 0 (none) (hairless mice [2]; 10^-3 M) | Reduction of wrinkles, Score 1 (slight) (hairless mice [2]; 10^-3 M) | Reduction of wrinkles, Score 2 (moderate) (hairless mice [2]; 10^-3 M) | Reduction of wrinkles, Score 3 (high) (hairless mice [2]; 10^-3 M) | Reduction of wrinkles, Score 0 (none) (hairless mice [2]; 10^-5 M) | Reduction of wrinkles, Score 1 (slight) (hairless mice [2]; 10^-5 M) | Reduction of wrinkles, Score 2 (moderate) (hairless mice [2]; 10^-5 M) | Reduction of wrinkles, Score 3 (high) (hairless mice [2]; 10^-5 M) | Reduction of wrinkles, Score 0 (none) (hairless mice [2]; 10^-8 M) | Reduction of wrinkles, Score 1 (slight) (hairless mice [2]; 10^-8 M) | Reduction of wrinkles, Score 2 (moderate) (hairless mice [2]; 10^-8 M) | Reduction of wrinkles, Score 3 (high) (hairless mice [2]; 10^-8 M) | Inhibition of wrinkles, Score 0 (none) (hairless mice [3]; 10^-3 M) | Inhibition of wrinkles, Score 1 (slight) (hairless mice [3]; 10^-3 M) | Inhibition of wrinkles, Score 2 (moderate) (hairless mice [3]; 10^-3 M) | Inhibition of wrinkles, Score 3 (high) (hairless mice [3]; 10^-3 M) | also measured
COC(=O)C1=C(C)NC(C)=C(C(=O)OC)C1c1ccccc1[N+](=O)[O-] [Nifedipine] | 358.16 | 330.30 | 292.21 | 204.31% | 0 number of mice | 2 number of mice | 2 number of mice | 6 number of mice | 0 number of mice | 2 number of mice | 2 number of mice | 6 number of mice | 0 number of mice | 2 number of mice | 3 number of mice | 5 number of mice | 0 number of mice | 2 number of mice | 3 number of mice | 5 number of mice | Inhibition of wrinkles, Score 0 (none) (hairless mice [3]; 10^-5 M): 0 number of mice; Inhibition of wrinkles, Score 1 (slight) (hairless mice [3]; 10^-5 M): 2 number of mice; Inhibition of wrinkles, Score 2 (moderate) (hairless mice [3]; 10^-5 M): 3 number of mice; Inhibition of wrinkles, Score 3 (high) (hairless mice [3]; 10^-5 M): 5 number of mice; Inhibition of wrinkles, Score 0 (none) (hairless mice [3]; 10^-8 M): 0 number of mice; Inhibition of wrinkles, Score 1 (slight) (hairless mice [3]; 10^-8 M): 2 number of mice; Inhibition of wrinkles, Score 2 (moderate) (hairless mice [3]; 10^-8 M): 3 number of mice; Inhibition of wrinkles, Score 3 (high) (hairless mice [3]; 10^-8 M): 5 number of mice
O=C1NC(=O)C(c2ccccc2)(c2ccccc2)N1 [Phenytoin] | 381.54 | 360.65 | 298.35 | 215.28* % | 0 number of mice | 0 number of mice | 3 number of mice | 7 number of mice | 0 number of mice | 1 number of mice | 3 number of mice | 6 number of mice | 0 number of mice | 1 number of mice | 2 number of mice | 7 number of mice | 0 number of mice | 0 number of mice | 3 number of mice | 7 number of mice | Effect of promoting collagen production in animal skin (hydroxyproline value vs control) (rat skin; 10^-5 M): 182.47%; Effect of promoting collagen production in animal skin (hydroxyproline value vs control) (rat skin; 10^-6 M): 167.41%; Effect of promoting collagen production in animal skin (hydroxyproline value vs control) (rat skin; 10^-7 M): 143.51%; Effect of promoting collagen production in animal skin (hydroxyproline value vs control) (rat skin; 10^-8 M): 132.58* %; Inhibition of wrinkles, Score 0 (none) (hairless mice [3]; 10^-5 M): 0 number of mice; Inhibition of wrinkles, Score 1 (slight) (hairless mice [3]; 10^-5 M): 0 number of mice; Inhibition of wrinkles, Score 2 (moderate) (hairless mice [3]; 10^-5 M): 3 number of mice; Inhibition of wrinkles, Score 3 (high) (hairless mice [3]; 10^-5 M): 7 number of mice; Inhibition of wrinkles, Score 0 (none) (hairless mice [3]; 10^-8 M): 0 number of mice; Inhibition of wrinkles, Score 1 (slight) (hairless mice [3]; 10^-8 M): 0 number of mice; Inhibition of wrinkles, Score 2 (moderate) (hairless mice [3]; 10^-8 M): 2 number of mice; Inhibition of wrinkles, Score 3 (high) (hairless mice [3]; 10^-8 M): 8 number of mice
COc1ccc(CCN(C)CCCC(C#N)(c2ccc(OC)c(OC)c2)C(C)C)cc1OC (stereo not shown) [Verapamil HCl] | 355.12 | 331.09 | 280.23 | 183.25% | 0 number of mice | 1 number of mice | 2 number of mice | 7 number of mice | 0 number of mice | 2 number of mice | 1 number of mice | 7 number of mice | 0 number of mice | 2 number of mice | 2 number of mice | 6 number of mice | 0 number of mice | 0 number of mice | 1 number of mice | 9 number of mice | Effect of promoting collagen production in animal skin (hydroxyproline value vs control) (rat skin; 10^-5 M): 183.32%; Effect of promoting collagen production in animal skin (hydroxyproline value vs control) (rat skin; 10^-6 M): 167.06%; Effect of promoting collagen production in animal skin (hydroxyproline value vs control) (rat skin; 10^-7 M): 147.39%; Effect of promoting collagen production in animal skin (hydroxyproline value vs control) (rat skin; 10^-8 M): 135.63%; Inhibition of wrinkles, Score 0 (none) (hairless mice [3]; 10^-5 M): 0 number of mice; Inhibition of wrinkles, Score 1 (slight) (hairless mice [3]; 10^-5 M): 1 number of mice; Inhibition of wrinkles, Score 2 (moderate) (hairless mice [3]; 10^-5 M): 2 number of mice; Inhibition of wrinkles, Score 3 (high) (hairless mice [3]; 10^-5 M): 7 number of mice; Inhibition of wrinkles, Score 0 (none) (hairless mice [3]; 10^-8 M): 0 number of mice; Inhibition of wrinkles, Score 1 (slight) (hairless mice [3]; 10^-8 M): 1 number of mice; Inhibition of wrinkles, Score 2 (moderate) (hairless mice [3]; 10^-8 M): 1 number of mice; Inhibition of wrinkles, Score 3 (high) (hairless mice [3]; 10^-8 M): 8 number of mice
CCOC(=O)C1=C(COCCN)NC(C)=C(C(=O)OC)C1c1ccccc1Cl (stereo not shown) [Amoldipine] | 355.26 | 330.42 | 280.07 | 182.42% | 0 number of mice | 1 number of mice | 3 number of mice | 6 number of mice | 0 number of mice | 2 number of mice | 2 number of mice | 6 number of mice | 0 number of mice | 1 number of mice | 1 number of mice | 8 number of mice | 0 number of mice | 0 number of mice | 2 number of mice | 8 number of mice | Effect of promoting collagen production in animal skin (hydroxyproline value vs control) (rat skin; 10^-5 M): 181.12%; Effect of promoting collagen production in animal skin (hydroxyproline value vs control) (rat skin; 10^-6 M): 163.84%; Effect of promoting collagen production in animal skin (hydroxyproline value vs control) (rat skin; 10^-7 M): 149.65%; Effect of promoting collagen production in animal skin (hydroxyproline value vs control) (rat skin; 10^-8 M): 132.50%; Inhibition of wrinkles, Score 0 (none) (hairless mice [3]; 10^-5 M): 0 number of mice; Inhibition of wrinkles, Score 1 (slight) (hairless mice [3]; 10^-5 M): 1 number of mice; Inhibition of wrinkles, Score 2 (moderate) (hairless mice [3]; 10^-5 M): 3 number of mice; Inhibition of wrinkles, Score 3 (high) (hairless mice [3]; 10^-5 M): 6 number of mice; Inhibition of wrinkles, Score 0 (none) (hairless mice [3]; 10^-8 M): 0 number of mice; Inhibition of wrinkles, Score 1 (slight) (hairless mice [3]; 10^-8 M): 1 number of mice; Inhibition of wrinkles, Score 2 (moderate) (hairless mice [3]; 10^-8 M): 1 number of mice; Inhibition of wrinkles, Score 3 (high) (hairless mice [3]; 10^-8 M): 8 number of mice
